This assay relates to C. parvum. As to the kind of experiment: Nluc luciferase assay of transfected C. parvum cultured in HCT-8 cells in the presence of drug. It counts as cell-based, Cryptosporidium parvum. The following applies: electroporated (Nluc-transfected) C. parvum grown in paramomycin on HCT-8 host cells; FIG. 3D. The text has this: Next, we performed transfections and then cultured the transfected parasites in the presence of paramomycin, a drug that reduces growth of C. parvum but not the mammalian host cell. […] (FIG. 3D). We also tested an Nluc plasmid that lacks the Cryptosporidium promoter but carries Toxoplasma flanking sequences instead. […] Lastly, we tested whether parasite vectors can transduce host cells by deliberately delivering plasmid DNA into the HCT-8 host cell cytoplasm by lipofection. […] Collectively these measurements confirm that Apicomplexa and mammals have divergent primary sequence elements that drive transcription and subsequent RNA processing. Cryptosporidium transfection therefore depends on the introduction of a parasite species specific vector into viable parasites. Moreover, passive DNA delivery into the host is not relevant for activity and host cells are not transfected even when DNA is deliberately introduced into the host. […]
For in vitro experiments, cells were scraped from T-25 flasks or 24-well plates and collected after 48 hours of incubation. […] After five minutes of incubation at room temperature, the cell lysate was added to white 96 well plates and luminescence was measured on a luminometer (BioTek Instruments, Inc., Winooski, Vt.). The read out was quantified in terms of relative luminescence units (RLU).

Consider one compound from patent publication US20160160224A1, “CRYPTOSPORIDIUM TRANSFECTION METHODS AND TRANSFECTED CRYPTOSPORIDIUM CELLS” (UNIVERSITY OF GEORGIA RESEARCH FOUNDATION, INC., priority 2013, published 2016).

Turning to `NC[C@@H]1O[C@H](O[C@H]2[C@@H](O)[C@H](O[C@@H]3[C@@H](O)[C@H](N)C[C@H](N)[C@H]3O[C@H]3O[C@H](CO)[C@@H](O)[C@H](O)[C@H]3N)O[C@@H]2CO)[C@H](N)[C@@H](O)[C@@H]1O` [Paramomycin, paramomycin], the “Nluc expression (luciferase activity)” value is “reduction of Nluc expression”.
